Source: publication PMC6030506 (Biochemistry, 2018)

Columns and labels:
HDAC8 = biological target: T1, HDAC8 (Homo sapiens, UniProt Q9BY41); experiment: ITC; assay type: binding; conditions: […] HEPES pH […] KCl, […] glycerol, […] TCEP
T1 sequence (Q9BY41 1-377): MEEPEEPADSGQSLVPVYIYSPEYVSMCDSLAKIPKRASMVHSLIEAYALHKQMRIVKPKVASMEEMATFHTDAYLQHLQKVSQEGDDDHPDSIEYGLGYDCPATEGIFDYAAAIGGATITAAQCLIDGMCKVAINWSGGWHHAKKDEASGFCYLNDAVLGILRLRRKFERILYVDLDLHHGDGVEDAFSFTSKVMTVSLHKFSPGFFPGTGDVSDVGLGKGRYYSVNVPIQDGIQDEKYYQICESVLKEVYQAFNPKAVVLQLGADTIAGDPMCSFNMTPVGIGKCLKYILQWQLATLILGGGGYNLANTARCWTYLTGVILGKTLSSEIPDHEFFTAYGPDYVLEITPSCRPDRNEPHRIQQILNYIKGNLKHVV

[1] = biological target: T2, HDAC6 (catalytic domain 2, CD2) (Danio rerio, UniProt F8W4B7); experiment: ITC; assay type: binding; conditions: […] HEPES pH […] KCl, […] glycerol, […] TCEP
T2 sequence (F8W4B7 440-798): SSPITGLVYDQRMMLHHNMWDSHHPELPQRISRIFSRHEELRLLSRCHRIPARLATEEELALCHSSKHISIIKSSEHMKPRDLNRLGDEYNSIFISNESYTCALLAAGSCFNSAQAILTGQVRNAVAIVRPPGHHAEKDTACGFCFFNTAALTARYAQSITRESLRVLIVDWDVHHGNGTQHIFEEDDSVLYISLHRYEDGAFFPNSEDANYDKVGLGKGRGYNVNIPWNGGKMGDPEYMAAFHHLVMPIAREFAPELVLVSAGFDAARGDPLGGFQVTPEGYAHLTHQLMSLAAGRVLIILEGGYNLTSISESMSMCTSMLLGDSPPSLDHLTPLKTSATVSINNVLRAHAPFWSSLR

SMILES | Kd (HDAC8) | Kd [1]
O=C(NO)c1ccc(CN(CCO)C(=O)Cc2ccccc2)cc1 [HPB] | we additionally studied the binding of the phenylhydroxamate derivative HPB | we additionally studied the binding of the phenylhydroxamate derivative HPB
O=C(CCCCCCNC(=O)c1cnc(N(c2ccccc2)c2ccccc2)nc1)NO [Ricolinostat] |  | the aliphatic hydroxamate inhibitor Ricolinostat
O=C(CCCCCCC(=O)Nc1ccccc1)NO [SAHA] |  | the aliphatic hydroxamate inhibitor suberoylanilide hydroxamic acid (SAHA)
